Experiments:
FLT3(WT) = FLT3(WT) (Homo sapiens, UniProt P36888); experiment: Binding constant (Kd), competition binding with qPCR readout
FLT3(ITD-F691L) = target: T1, FLT3(ITD-F691L) (Homo sapiens, UniProt P36888, F691L, form not given); experiment: as above
T1 construct: kinase-tagged T7 phage strains were prepared in an E. coli host derived from the BL21 strain; fused on or other part: T7 phage fusion or DNA tag for qPCR detection
Method: (§1) Measurements of said kinase activity are referred to as binding constants or Kd values. The protocol for obtaining these values is hereby described. For most assays, kinase-tagged T7 phage strains were prepared in an E. coli host derived from the BL21 strain. E. coli were grown to log-phase and infected with T7 phage and incubated with shaking at 32° C. until lysis. The lysates were centrifuged and filtered to remove cell debris. The remaining kinases were produced in HEK-293 cells and subsequently tagged with DNA for qPCR detection. […] The liganded beads were blocked with excess biotin and washed with blocking buffer (SeaBlock (Pierce), 1% BSA, 0.05% Tween 20, 1 mM DTT) to remove unbound ligand and to reduce nonspecific binding. […] Test compounds were prepared as 111× stocks in 100% DMSO. Kds were determined using an 11-point 3-fold compound dilution series with three DMSO control points. […] The compounds were then diluted directly into the assays such that the final concentration of DMSO was 0.9%. All reactions performed in polypropylene 384-well plate. Each was a final volume of 0.02 ml. […] The kinase concentration in the eluates was measured by qPCR.

FLT3(R834Q) = target: T2, FLT3(R834Q) (Homo sapiens, UniProt P36888, R834Q); experiment: as above
T2 construct: made in house; host or cells: E. coli BL21-derived host (T7 phage) or HEK-293
Method: as §1

FLT3(D835V) = target: T3, FLT3(D835V) (Homo sapiens, UniProt P36888, D835V); experiment: as above
T3 construct: made in house; host or cells: E. coli BL21-derived host (T7 phage) or HEK-293
Method: as §1

FLT3(ITD-D835V) = target: T4, FLT3(ITD-D835V) (Homo sapiens, UniProt P36888, D835V, form not given); experiment: as above
T4 construct: kinase-tagged T7 phage strains were prepared in an E. coli host derived from the BL21 strain; fused on or other part: T7 phage fusion or DNA tag for qPCR detection
Method: as §1

[1] = system: Ba/F3-ITD + 691 (ITD + F691L); experiment: Antiproliferative activity (Table 6); type: cell-based, Murin; settings: 72 h
BTK (P190K) = target: T5, BTK (P190K) (Homo sapiens, UniProt Q06187, P190K); experiment: Inhibition of BTK, kinase IC50; type: biochemical
T5 construct: RBC (only as the name of the general kinase protocol)
Method: (§2) RBC HotSpot Kinase Assay Protocol:
(§3) Reagents used: Base Reaction buffer; 20 mM Hepes (pH 7.5), 10 mM MgCl2, 1 mM EGTA, 0.02% Brij35, 0.02 mg/ml BSA, 0.1 mM Na3VO4, 2 mM DTT, 1% DMSO. Required cofactors are added individually to each kinase reaction.
(§4) Compound 7 was dissolved in 100% DMSO to a specified concentration. The serial dilution was conducted by epMotion 5070 in DMSO. The substrate was freshly prepared in Reaction Buffer and any required cofactors to the substrate solution were added. The kinase was added to the solution and gently mixed. Compound 7 was added in 100% DMSO into the kinase reaction mixture by Acoustic technology (Echo550; nanoliter range), and incubated for 20 min at room temperature. ^33P-ATP (Specific activity 10 μCi/μl) was added into the reaction mixture to initiate the reaction, which was incubated for 2 hours, whereupon kinase activity was detected by the filter-binding method.

BTK = target: T6, BTK (Homo sapiens, UniProt Q06187); experiment: Inhibition of BTK, kinase IC50; type: biochemical
T6 construct: RBC (only as the name of the general kinase protocol)
Method: as §2, §3, §4

BTK (E41K) = target: T7, BTK (E41K) (Homo sapiens, UniProt Q06187, E41K); experiment: Inhibition of BTK, kinase IC50; type: biochemical
T7 construct: RBC (only as the name of the general kinase protocol)
Method: as §2, §3, §4

[2] = system: BTK and Aurora kinase in Ramos cells; experiment: Cell signaling in Ramos cells (Western blot); type: cell-based; settings: relative to ibrutinib
Method: Immunoblot assays: Cells were treated with Compound 7 at various concentrations and collected for cell lysates. The total and phosphorylated levels of the indicated proteins were determined by Western Blot.

BJAB = experiment: Cytotoxicity, MTS cell viability; type: cell-based; settings: Homo sapiens, 72 h, GCB-DLBCL, 3 days MTS
Method: (§5) Cells were seeded in a 96 well plate and treated with either vehicle (DMSO) or compound 7 at 10 different concentrations for 3 days at 37° C. and 5% CO2. Cell viability was assessed using CellTiter 96 AQueous one solution (MTS Promega Cat#G3581), and IC50 values calculated using GraphPad Prism 7 software.

L1236 = experiment: Cytotoxicity, MTS cell viability; type: cell-based; settings: L-1236, 72 h, HL, 3 days MTS
Method: as §5

SU-DHL2 = experiment: Cytotoxicity, MTS cell viability; type: cell-based; settings: Homo sapiens, SU-DHL-2, 72 h, ABC-DLBCL, 3 days MTS
Method: as §5

MHH-Call4 = experiment: Cytotoxicity, MTS cell viability; type: cell-based; settings: MHHCALL4, 72 h, B-ALL, 3 days MTS
Method: as §5

U2932 = experiment: Cytotoxicity, MTS cell viability; type: cell-based; settings: Homo sapiens, 72 h, ABC-DLBCL, 3 days MTS
Method: as §5

DOHH2 = experiment: Cytotoxicity, MTS cell viability; type: cell-based; settings: Homo sapiens, DOHH-2, 72 h, FL, 3 days MTS
Method: as §5

OCI-LY3 = experiment: Cytotoxicity, MTS cell viability; type: cell-based; settings: Homo sapiens, 72 h, ABC-DLBCL, 3 days MTS
Method: as §5

[3] = system: Mino, RAMOS, GRANTA-519 and SU-DHL-6 cells; experiment: Cell cycle progression in B-cell malignant cell lines (EdU/PI, FACS); type: cell-based; settings: FIGS. 27, 28
Method: The data presented in FIGS. 27A-27D and FIGS. 28A-28D were generated using well-known protocols for measuring cell cycle progression (e.g., EdU and/or PI staining followed by FACS analysis using the BD Accuri C6 flow), and is readily apparent to a skilled artisan.
(§6) Cell-cycle analysis: Cells were treated with vehicle, DMSO or Compound 7 and were stained with PI and EdU, and then analyzed by flow cytometry to determine the phases of cell cycle.

MV411 cells = experiment: Cell-cycle analysis (EdU/PI flow cytometry); type: cell-based, human; settings: dose-dependent
Method: as §6

FLT3(N841I) = target: T8, FLT3(N841I) (Homo sapiens, UniProt P36888, N841I); experiment: Binding constant (Kd), competition binding with qPCR readout
T8 construct: made in house; host or cells: E. coli BL21-derived host (T7 phage) or HEK-293

[4] = Pharmacokinetic study in rat; type: in vivo

T5 sequence (Q06187 whole entry P190K): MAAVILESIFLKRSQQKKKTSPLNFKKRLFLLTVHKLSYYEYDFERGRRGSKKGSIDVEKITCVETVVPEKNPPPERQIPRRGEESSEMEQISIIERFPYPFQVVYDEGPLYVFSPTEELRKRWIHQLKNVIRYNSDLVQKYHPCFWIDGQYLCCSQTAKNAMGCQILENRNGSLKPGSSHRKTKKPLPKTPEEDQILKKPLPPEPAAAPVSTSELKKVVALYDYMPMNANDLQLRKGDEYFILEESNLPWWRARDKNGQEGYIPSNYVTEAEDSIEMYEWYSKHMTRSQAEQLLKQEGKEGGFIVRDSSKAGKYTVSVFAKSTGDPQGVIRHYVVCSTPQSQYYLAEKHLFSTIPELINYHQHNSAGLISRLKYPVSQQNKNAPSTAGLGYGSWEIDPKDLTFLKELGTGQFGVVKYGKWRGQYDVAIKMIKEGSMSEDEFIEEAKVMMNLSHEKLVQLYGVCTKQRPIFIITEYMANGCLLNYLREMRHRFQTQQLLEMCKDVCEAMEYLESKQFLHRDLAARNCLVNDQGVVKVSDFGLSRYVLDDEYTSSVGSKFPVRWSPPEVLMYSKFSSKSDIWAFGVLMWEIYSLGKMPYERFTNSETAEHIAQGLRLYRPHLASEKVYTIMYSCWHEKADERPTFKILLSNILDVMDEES
T6 sequence (Q06187 whole entry): as the sequence (Q06187 whole entry P190K) above, with K190P counted along it
T7 sequence (Q06187 whole entry E41K): as the sequence (Q06187 whole entry P190K) above, with E41K, K190P counted along it

Cc1cnc(-c2ccc(-c3ccc(NC(=O)Nc4c(F)cc(F)cc4F)cc3F)c3c2C(=O)NC3)[nH]1 [Compound 7, 1-{3-fluoro-4-[7-(5-methyl-1H-imidazol-2-yl)-1-oxo-2,3-dihydro-1H-isoindol-4-yl]-phenyl}-3-(2,4,6-trifluorophenyl)urea]
Kd (FLT3(WT)): 0.24 nM | Kd (FLT3(ITD-F691L)): 15 nM | Kd (FLT3(R834Q)): 6.4 nM | Kd (FLT3(D835V)): 7.9 nM | Kd (FLT3(ITD-D835V)): 1700 nM | IC50 [1]: 0.43 nM | IC50 (BTK (P190K)): 6.59 nM | IC50 (BTK): 8.42 nM | IC50 (BTK (E41K)): 14.5 nM | BTK and Aurora kinase activity [2]: inhibits BTK and Aurora kinase activity | IC50 (BJAB): 882 nM | IC50 (L1236): 7820 nM | IC50 (SU-DHL2): 744 nM | IC50 (MHH-Call4): 27.8 nM | IC50 (U2932): 632 nM | IC50 (DOHH2): 2.94 nM | IC50 (OCI-LY3): 830 nM | Cell cycle progression [3]: interferes with cell cycle progression | G0/G1 cell-cycle arrest (MV411 cells): induce G0/G1 cell-cycle arrest | Kd (FLT3(N841I)): 0.76 nM | Exposure ([4]; 2 mg/kg administered by i.v.): Reasonable exposure | AUC ([4]; administered orally, FIG. 5): AUC improves in a dose-dependent manner

Reference: patent US20180344702A1, “METHODS FOR TREATING PATIENTS WITH HEMATOLOGIC MALIGNANCIES” (Aptose Biosciences, Inc., priority 2017, published 2018)
